Reference: US20260062407A1, “PEROXIREDOXIN 3 INHIBITORS AND METHODS OF USE FOR TREATING CANCER” (WAKE FOREST UNIVERSITY HEALTH SCIENCES, priority 2022, published 2026)

What was measured:
578 cancer cells lines = settings: of 578 cancer cell lines tested; cited from earlier work
[1] = test system: Enterococcus hirae (ATCC #10541); experiment: Antimicrobial Activity Assay (MIC); assay type: cell-based
Protocol: The overnight growth was then diluted into growth media to make a single solution of E. hirae with a final optical density at 600 nm=0.02 AU. A 20 mM stock solution of Thiostrepton in DMSO was made and used to make multiple dilutions of TS in DMSO. Each TS dilution (0.1 mL) was then added to a test tube containing 10 mL of the diluted E. hirae and grown at 37° C. overnight while shaking at 180 rpm. The next morning, each tube was visually inspected to determine if the cells grew. Final concentrations tested were 0.120, 0.090, 0.075, 0.060, 0.045, 0.030, and 0.015 μM TS. […] Three replicates were made on three separate days (n=9). […] For TS analogs, the dilute E. hirae was treated with 20 μM final concentration of each analog (three replicates each). […] DMSO was used as a positive control (complete cell growth) and 20 μM thiostrepton was used as a negative control.

Solubility Assay (HPLC) = assay type: physicochemical; settings: 20 mM HEPES, 100 mM NaCl, pH 7.5, 18-24 hours at ambient temperature
Protocol: A 20 mM stock solution was made for each compound in DMSO. To measure solubility, 0.03-0.05 mL of the stock was added to 0.27 mL 20 mM HEPES, 100 mM NaCl, pH 7.5. The solution was mixed and rotated 18-24 hours at ambient temperature. The next day, solutions were centrifuged for 10 min at 20,000×g at 24° C. to remove insoluble, solid material. Next, 100 μL of the supernatant containing the soluble compound was added to 900 μL DMSO and High Performance Liquid Chromatography was performed as described in Table 1 and either HPLC gradient 1 (Table 2) or HPLC gradient 2 (Table 3). For each analog, a 200 μM standard and a 20 μM standard were prepared and run in parallel (standards were dissolved completely in 100% DMSO). The amount of compound in the experimental sample was calculated by comparing the area under the curve for compound peak to the area for the closest standard and correcting for dilution.

[2] = test system: SK-OV-3 ovarian cancer cells; experiment: Cellular Activity Assay (cytotoxicity, crystal violet); assay type: cell-based; settings: Homo sapiens; SK-OV-3 cells, 48 hr treatment, 0.1-100 μM, crystal violet absorbance at 540 nm
Source text: To test the activity of compounds, two complimentary assays were used as described below. The Biochemical PRX3 Inhibition Assay tests the ability of each compound to crosslink PRX3 in a simple, in vitro system. In the Cellular Activity Assay, we are testing the ability of compounds to kill SK-OV-3 ovarian cancer cells.
The Cellular Activity Assay measures the EC50 of each compound in human SK-OV-3 ovarian cancer cells TS to be taken into the cell, transported to the mitochondria, and crosslink PRX3.
The cytotoxicity of compounds was measured as described in Nelson et al. (2021) Antioxidants (Basel) 10, 150; Cunniff et al. (2015) PloS one 10, e0127310; and Newick et al. (2012)PloS one 7, e39404. SK-OV-3 is an adherent, epithelial, adenocarcinoma cell line obtained from ATCC (ref #: HTB-77). SK-OV-3 cells are resistant to the commonly used chemotherapeutics, cis-platinum and doxorubicin. For this PRX3 crosslinking assay, SK-OV-3 cells were plated in a 96-well plate. After 24 h recovery, the cells were treated for 48 hr with multiple concentrations of each compound ranging from 0.1-100 μM.
Cells were washed with PBS to remove dead cells and the remaining live cells were fixed with 3.0% formaldehyde and stained with 0.1% crystal violet. The amount of crystal violet was determined by reading the absorbance at 540 nm (crystal violet dye dissolved in 100% methanol) using a plate reader. […]

C=C(NC(=O)C(=C)NC(=O)c1csc(C2=N[C@@H]3c4csc(n4)[C@H]4NC(=O)c5csc(n5)[C@H]([C@](C)(O)[C@@H](C)O)NC(=O)[C@H]5CSC(=N5)/C(=C/C)NC(=O)[C@H]([C@@H](C)O)NC(=O)c5csc(n5)[C@]3(CC2)NC(=O)[C@H](C)NC(=O)C(=C)NC(=O)[C@H](C)NC(=O)[C@H]([C@@H](C)CC)N[C@@H]2C=Cc3c([C@H](C)O)cc(nc3[C@H]2O)C(=O)O[C@@H]4C)n1)C(N)=O [Thiostrepton (TS), Thiostrepton]
number of tumor cell lines with meaningful efficacy (578 cancer cells lines): 403

C=C(NC(=O)C(=C)NC(=O)c1csc(C2=N[C@@H]3c4csc(n4)[C@H]4NC(=O)c5csc(n5)[C@H]([C@](C)(O)[C@@H](C)O)NC(=O)[C@H]5CSC(=N5)/C(=C/C)NC(=O)[C@H]([C@@H](C)O)NC(=O)c5csc(n5)[C@]3(CC2)NC(=O)[C@H](C)NC(=O)C(=C)NC(=O)[C@H](C)NC(=O)[C@H]([C@@H](C)CC)N[C@@H]2C=Cc3c([C@H](C)O)cc(nc3[C@H]2O)C(=O)O[C@@H]4C)n1)C(N)=O [TS, Thiostrepton]
TS concentrations at which complete growth was observed ([1]; E. hirae, overnight at 37° C., n=9): ≤ 0.030 µM | MIC ([1]; Enterococcus hirae, ATCC10541, read-out: TS concentrations at which no growth was observed (MIC)): ≥ 0.045 µM

C=C(NC(=O)c1csc(N2CCC(NC(=O)CC3CCOCC3)CC2)n1)C(=O)NC(=C)C(=O)OC [Compound 51, Methyl 2-(2-(2-(4-(2-(tetrahydro-2H-pyran-4-yl)acetamido)piperidin-1-yl)thiazole-4-carboxamido)acrylamido)acrylate]
Solubility (Solubility Assay (HPLC)): + (<0.1 mM) | EC50 [2]: 10 to 25 µM
